In data set [1] the target is T1, mGluR5 (Homo sapiens, UniProt P41594). As to the kind of experiment: mGluR5 fold shift at a fixed compound concentration. It counts as cell-based.
The target of data set [2] is T1, mGluR5. As to the kind of experiment: mGluR5 PAM EC50 (positive allosteric modulator potency). It counts as cell-based.

Some results are limits rather than exact numbers.

T1 sequence (P41594 21-1212): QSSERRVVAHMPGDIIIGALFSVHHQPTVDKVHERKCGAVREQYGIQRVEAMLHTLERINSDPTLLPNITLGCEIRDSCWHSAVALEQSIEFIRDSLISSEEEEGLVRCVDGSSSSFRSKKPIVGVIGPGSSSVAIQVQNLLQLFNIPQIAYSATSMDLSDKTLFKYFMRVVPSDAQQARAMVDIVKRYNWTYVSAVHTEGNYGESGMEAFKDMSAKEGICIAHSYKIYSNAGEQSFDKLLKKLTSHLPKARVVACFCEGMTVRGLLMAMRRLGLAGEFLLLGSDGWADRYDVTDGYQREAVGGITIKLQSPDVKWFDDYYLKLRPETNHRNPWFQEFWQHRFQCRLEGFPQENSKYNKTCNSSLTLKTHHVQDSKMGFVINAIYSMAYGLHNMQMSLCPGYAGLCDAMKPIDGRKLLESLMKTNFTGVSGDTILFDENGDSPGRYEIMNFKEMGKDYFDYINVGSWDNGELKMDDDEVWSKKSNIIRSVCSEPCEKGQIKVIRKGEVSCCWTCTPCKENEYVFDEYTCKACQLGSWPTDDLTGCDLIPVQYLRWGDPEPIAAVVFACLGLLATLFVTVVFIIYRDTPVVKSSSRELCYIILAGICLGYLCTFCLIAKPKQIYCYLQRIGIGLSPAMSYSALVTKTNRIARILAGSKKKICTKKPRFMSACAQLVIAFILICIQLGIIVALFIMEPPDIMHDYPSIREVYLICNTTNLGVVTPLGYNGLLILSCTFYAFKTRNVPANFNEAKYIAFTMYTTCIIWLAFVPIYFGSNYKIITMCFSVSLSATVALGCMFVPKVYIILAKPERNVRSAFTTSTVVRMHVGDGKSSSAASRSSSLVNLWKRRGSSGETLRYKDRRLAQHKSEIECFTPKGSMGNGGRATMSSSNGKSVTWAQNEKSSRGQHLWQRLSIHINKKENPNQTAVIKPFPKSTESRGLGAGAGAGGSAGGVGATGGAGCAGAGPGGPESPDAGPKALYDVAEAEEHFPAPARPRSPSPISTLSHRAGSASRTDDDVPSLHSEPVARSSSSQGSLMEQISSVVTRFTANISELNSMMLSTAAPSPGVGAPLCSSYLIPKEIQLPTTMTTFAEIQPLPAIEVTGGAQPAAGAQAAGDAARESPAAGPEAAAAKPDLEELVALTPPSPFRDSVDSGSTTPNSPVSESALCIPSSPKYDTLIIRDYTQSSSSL

For orientation: EC50 means the concentration giving half of the maximal effect. The low end stands for an effect from little substance, the high end for a need for much substance. In the case of `CC1(C)CCn2c(nc3cc(C(=O)Nc4ccccn4)ccc3c2=O)C1` [Example 4.11, 7,7-dimethyl-11-oxo-N-(pyridin-2-yl)-7,8,9,11-tetrahydro-6H-pyrido[2,1-b]quinazoline-3-carboxamide], the “Fold shift at 1 μM” value in data set [1] is “+ (+ is between 1.5 and 1.9)”. Besides, in data set [2], the EC50 lay within 100 to 300 nM.

Regarding `CC1(C)CCc2nc3c(F)c(C#Cc4ccccn4)ccc3c(=O)n2C1` [Example 2.30b, 4-fluoro-8,8-dimethyl-3-(pyridin-2-ylethynyl)-8,9-dihydro-6H-pyrido[2,1-b]quinazolin-11(7H)-one], in data set [1], the “Fold shift at 1 μM” value is “+++ (+++>3)”. This compound yielded an EC50 in data set [2] of 10 to 30 nM.

As for `CC1(C)CCc2nc3cc(C#Cc4cccnn4)ccc3c(=O)n2C1` [Example 2.105, 8,8-dimethyl-3-(pyridazin-3-ylethynyl)-8,9-dihydro-6H-pyrido[2,1-b]quinazolin-11(7H)-one], the “Fold shift at 1 μM” value in data set [1] is “++ (++ is between 2.0 and 2.9)”. In data set [2], this compound showed an EC50 of 30 to 100 nM.

For `CC1(C)CCc2nc3cc(C#Cc4ccccc4)ccc3c(=O)n2C1` [Example 2.37, 8,8-dimethyl-3-(phenylethynyl)-8,9-dihydro-6H-pyrido[2,1-b]quinazolin-11(7H)-one], the “Fold shift at 1 μM” value in data set [1] is “++ (++ is between 2.0 and 2.9)”. Further, the EC50 in data set [2] is < 10 nM.

With `O=c1c2ccc(C#Cc3ccccn3)cc2nc2n1CC1(CCC2)CC1(F)F` (stereo not shown) [Example 3.40, 2′,2′-difluoro-3-(pyridin-2-ylethynyl)-7,8-dihydro-6H-spiro[azepino[2,1-b]quinazoline-9,1′-cyclopropan]-12(10H)-one], the “Fold shift at 1 μM” value in data set [1] was “+++ (+++>3)”. The same compound came in with an EC50 in data set [2] of 10 to 30 nM.

For `CC1(C)Cc2nc3cc(C#Cc4ccccn4)ccc3c(=O)n2O1` [Example 1.15, 2,2-dimethyl-6-(pyridin-2-ylethynyl)-2H-isoxazolo[3,2-b]quinazolin-9(3H)-one], the “Fold shift at 1 μM” value in data set [1] was “+ (+ is between 1.5 and 1.9)”. The compound further registered an EC50 in data set [2] of 30 to 100 nM.

In the case of `COC1(C)CCc2nc3cc(C#Cc4ccccn4)ccc3c(=O)n2C1` (single isomer, unassigned) [Example 2.8a], the “Fold shift at 10 μM” value in data set [1] is “++ (++ is between 2.0 and 2.9)”. Further, the EC50 in data set [2] fell in the range of 100 to 300 nM.

With `COC1(C)CCc2nc3cc(C#Cc4ccccn4)ccc3c(=O)n2CC1` (single isomer, unassigned) [Example 3.4a], the “Fold shift at 10 μM” value in data set [1] is “+++ (+++>3)”. The compound also registered an EC50 in data set [2] of 30 to 100 nM.

As to `COC1CCc2nc3cc(C#Cc4ccccn4)ccc3c(=O)n2CC1` (single isomer, unassigned) [Example 3.11b], the “Fold shift at 1 μM” value in data set [1] is “++ (++ is between 2.0 and 2.9)”. In data set [2], the EC50 lay in the range of 10 to 30 nM.

Turning to `CC1(C)CCc2nc3cc(C#Cc4ccc(F)cn4)ccc3c(=O)n2C1` [Example 2.43, 3-((5-fluoropyridin-2-yl)ethynyl)-8,8-dimethyl-8,9-dihydro-6H-pyrido[2,1-b]quinazolin-11(7H)-one], in data set [1], the “Fold shift at 1 μM” value was “++ (++ is between 2.0 and 2.9)”. In data set [2], the EC50 was < 10 nM.

As to `CC1Cc2nc3cc(C#Cc4ccccn4)ccc3c(=O)n2CCC1(F)F` (single isomer, unassigned) [Example 3.30c], in data set [1], the “Fold shift at 10 μM” value is on record as “+++ (+++>3)”. In data set [2], this compound registered an EC50 of 10 to 30 nM.

With `O=c1c2ccc(C#Cc3ccccn3)cc2nc2n1CC(C(F)(F)F)C2` (single isomer, unassigned) [Example 1.8b], in data set [1], the “Fold shift at 1 μM” value is “+ (+ is between 1.5 and 1.9)”. Further, the EC50 in data set [2] lay in the range of 30 to 100 nM.

As to `Cc1cccc(C#Cc2ccc3c(=O)n4c(nc3c2)CCC(C)(C)C4)c1` [Example 2.44, 8,8-dimethyl-3-(m-tolylethynyl)-8,9-dihydro-6H-pyrido[2,1-b]quinazolin-11(7H)-one], the “Fold shift at 1 μM” value in data set [1] is reported as “+++ (+++>3)”. For the same compound, in data set [2], the EC50 is < 10 nM.

`O=c1c2ccc(C#Cc3ccccn3)cc2nc2n1CCC(F)(F)CC2` [Example 3.15, 8,8-difluoro-3-(pyridin-2-ylethynyl)-7,8,9,10-tetrahydroazepino[2,1-b]quinazolin-12(6H)-one]: the “Fold shift at 10 μM” value in data set [1] was “+++ (+++>3)”. In data set [2], this compound had an EC50 of 10 to 30 nM.

With `O=c1c2ccc(C#Cc3ccccn3)cc2nc2n1CC1(CC2)CC1(F)F` (stereo not shown) [Example 2.68, 2,2-difluoro-3′-(pyridin-2-ylethynyl)-6′,7′-dihydrospiro[cyclopropane-1,8′-pyrido[2,1-b]quinazolin]-11′(9′H)-one], the “Fold shift at 1 μM” value in data set [1] is “+++ (+++>3)”. Besides, the EC50 in data set [2] was < 10 nM.

Regarding `COc1ccnc(C#Cc2ccc3c(=O)n4c(nc3c2)CCC(C)(C)C4)c1` [Example 2.102, 3-((4-methoxypyridin-2-yl)ethynyl)-8,8-dimethyl-8,9-dihydro-6H-pyrido[2,1-b]quinazolin-11(7H)-one], the “Fold shift at 1 μM” value in data set [1] was “+ (+ is between 1.5 and 1.9)”. Also, in data set [2], the EC50 lay in the range of 30 to 100 nM.

Regarding `O=c1c2ccc(C#Cc3ccccn3)cc2nc2n1CC1(CC2)COC1` [Example 2.58, 3′-(pyridin-2-ylethynyl)-6′,7′-dihydrospiro[oxetane-3,8′-pyrido[2,1-b]quinazolin]-11′(9′H)-one], the “Fold shift at 1 μM” value in data set [1] is on record as “+++ (+++>3)”. The EC50 in data set [2] is 10 to 30 nM.

For the compound `COC(C)(C)C1Cc2nc3cc(C#Cc4ccccn4)ccc3c(=O)n2C1` (stereo not shown) [Example 1.4, 2-(2-methoxypropan-2-yl)-6-(pyridin-2-ylethynyl)-2,3-dihydropyrrolo[2,1-b]quinazolin-9(1H)-one], the “Fold shift at 1 μM” value in data set [1] is given as “+++ (+++>3)”. The same compound showed an EC50 in data set [2] of 10 to 30 nM.

Regarding `CC1(C)COc2nc3cc(C#Cc4ccccn4)ccc3c(=O)n2C1` [Example 2.29, 3,3-dimethyl-9-(pyridin-2-ylethynyl)-3,4-dihydro-[1,3]oxazino[2,3-b]quinazolin-6(2H)-one], in data set [1], the “Fold shift at 1 μM” value was “+++ (+++>3)”. In data set [2], this compound returned an EC50 of 10 to 30 nM.

On to `O=c1c2ccc(C#Cc3ccccn3)cc2nc2n1CC(C(F)(F)F)C2` (single isomer, unassigned) [Example 1.8a], for which the “Fold shift at 1 μM” value in data set [1] is “+++ (+++>3)”. Also, in data set [2], the EC50 was 10 to 30 nM.

Take `CCC1(C)Cc2nc3cc(C#Cc4ccccn4)cnc3c(=O)n2C1` (stereo not shown) [Example 1.19, 7-ethyl-7-methyl-3-(pyridin-2-ylethynyl)-7,8-dihydropyrido[3,2-d]pyrrolo[1,2-a]pyrimidin-10(6H)-one]: in data set [1], the “Fold shift at 1 μM” value is “++ (++ is between 2.0 and 2.9)”. The EC50 in data set [2] was in the range of 30 to 100 nM.

As to `CC1CCc2cc3cc(C#Cc4ccccn4)ccc3c(=O)n2CC1` (single isomer, unassigned) [Example 3.20a], the “Fold shift at 10 μM” value in data set [1] is on record as “+++ (+++>3)”. In addition, the half-maximal effective concentration (EC50) in data set [2] is < 10 nM.

As for `Cc1cccc(C#Cc2ccc3c(=O)n4c(nc3c2)CCC(C)(C)C4)n1` [Example 2.41, 8,8-dimethyl-3-((6-methylpyridin-2-yl)ethynyl)-8,9-dihydro-6H-pyrido[2,1-b]quinazolin-11(7H)-one], the “Fold shift at 1 μM” value in data set [1] was “+++ (+++>3)”. In addition, in data set [2], the EC50 lay within 10 to 30 nM.

For the compound `O=c1c2ccc(C#Cc3ccccn3)cc2nc2n1CCC1CC21` (single isomer, unassigned) [Example 2.10a], in data set [1], the “Fold shift at 1 μM” value was “++ (++ is between 2.0 and 2.9)”. For the same compound, in data set [2], the EC50 lay within 30 to 100 nM.

For `CC12Cc3nc4cc(C#Cc5ccccn5)ccc4c(=O)n3CC1C2` (stereo not shown) [Example 2.98, 1a-methyl-5-(pyridin-2-ylethynyl)-1a,2,10,10a-tetrahydrocyclopropa[4,5]pyrido [2,1-b]quinazolin-8(1H)-one], in data set [1], the “Fold shift at 1 μM” value is “+++ (+++>3)”. In addition, the EC50 in data set [2] was < 10 nM.

With `CC1(C)CCc2nc3cc(C#Cc4ccc(Cl)cn4)ccc3c(=O)n2C1` [Example 2.42, 3-((5-chloropyridin-2-yl)ethynyl)-8,8-dimethyl-8,9-dihydro-6H-pyrido[2,1-b]quinazolin-11(7H)-one], in data set [1], the “Fold shift at 1 μM” value is recorded as “+++ (+++>3)”. Also, the EC50 in data set [2] is < 10 nM.

For `CCC1(C)Cc2nc3cc(C#Cc4ccccn4)ccc3c(=O)n2C1` (stereo not shown) [Example 1.10, 2-ethyl-2-methyl-6-(pyridin-2-ylethynyl)-2,3-dihydropyrrolo[2,1-b]quinazolin-9(1H)-one], the “Fold shift at 1 μM” value in data set [1] is given as “+++ (+++>3)”. The compound also had an EC50 in data set [2] of 10 to 30 nM.

Turning to `COC1(C)CCc2nc3cc(C#Cc4ccccn4)ccc3c(=O)n2C1` (single isomer, unassigned) [Example 2.8b], in data set [1], the “Fold shift at 1 μM” value is “+++ (+++>3)”. The same compound displayed an EC50 in data set [2] of 30 to 100 nM.

Consider `CC1Cn2c(nc3cc(C#Cc4ccccn4)ccc3c2=O)CCC1(F)F` (single isomer, unassigned) [Example 3.30f], for which the “Fold shift at 10 μM” value in data set [1] is “++ (++ is between 2.0 and 2.9)”. In data set [2], this compound came in with an EC50 of 10 to 30 nM.

(Values after patent publication US9708331B2, “Metabotrophic glutamate receptor 5 modulators and methods of use thereof” (SUNOVION PHARMACEUTICALS INC., priority 2011, dated 2017).)
